Reference: patent US10119122B2, “Differentiation and expansion of endothelial cells from pluripotent stem cells and the in vitro formation of vasculature like structures” (Academisch Ziekenhuis Leiden, priority 2013, dated 2018)

System: hPSCs
Assay: Monolayer endothelial differentiation of hPSCs in defined medium, flow cytometry at day 10
Type: cell-based, human
Conditions: VEGF together with SB-431542 5 μM from day 3, versus VEGF only; average over several cell lines
From the text: hiPSC lines were generated from Fib or BOECs using conditional lentiviral vectors containing the four transcription factors oct4, c-myc, Klf4 and Sox2, and characterized as described previously (Dambrot et al., 2013; Freund et al., 2008; Orlova et al., manuscript in preparation). hiPSCs and hESC (line HES-NL4; (van de Stolpe et al., 2005)) were routinely maintained on growth factor reduced MATRIGEL®-(BD, 354230) coated plates in mTeSR media (StemCell Technologies, 05850) and passaged mechanically. Differentiation was induced three days after passaging colonies by replacing mTeSR medium with the differentiation media based on BPEL (without PVA) (Ng et al., 2008) with timed addition of the following growth factors: 25 ng/ml ActivinA (Miltenyi, 130-095-547), 30 ng/ml BMP4 (Miltenyi, 130-095-549), VEGF165 (R&D Systems, 293-VE) and small molecule inhibitor CHIR99021 (Tocris, 4423). At day 3 and day 7 of differentiation, the media was refreshed with BPEL containing VEGF and 5 μM SB43152 (Tocris, 1614) only.
Cells were dissociated with TrypLE Select and washed once with the FACs buffer with the 10% FBS, followed by the single wash with the FACs buffer. […] In some experiment samples were analyzed with the MACSQuant VYB (Miltenyi). […]

NC(=O)c1ccc(-c2nc(-c3ccc4c(c3)OCO4)c(-c3ccccn3)[nH]2)cc1 [SB431542, reference compound]
increase in the yield of ECs: 30%
